From ChEMBL document CHEMBL1152129, “Quantitative structure-activity relationship and complex network approach to monoamine oxidase A and B inhibitors” (J Med Chem, 2008) come the findings set out here.

The target of the data set is T1, Amine oxidase [flavin-containing] A (Homo sapiens, UniProt P21397).
T1 sequence (P21397 whole entry): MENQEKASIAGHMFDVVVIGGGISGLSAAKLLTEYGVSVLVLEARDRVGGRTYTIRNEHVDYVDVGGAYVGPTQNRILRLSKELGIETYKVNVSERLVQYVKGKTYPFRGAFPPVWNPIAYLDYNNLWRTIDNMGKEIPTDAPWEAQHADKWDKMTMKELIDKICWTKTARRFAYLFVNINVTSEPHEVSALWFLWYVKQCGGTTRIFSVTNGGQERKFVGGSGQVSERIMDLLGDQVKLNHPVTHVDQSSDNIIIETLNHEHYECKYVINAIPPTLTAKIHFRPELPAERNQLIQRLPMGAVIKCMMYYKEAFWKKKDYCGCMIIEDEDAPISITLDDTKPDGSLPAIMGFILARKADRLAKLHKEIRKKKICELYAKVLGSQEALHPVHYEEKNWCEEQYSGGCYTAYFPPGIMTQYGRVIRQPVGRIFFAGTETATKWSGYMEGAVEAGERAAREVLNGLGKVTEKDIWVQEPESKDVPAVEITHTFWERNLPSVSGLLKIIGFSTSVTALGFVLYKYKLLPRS
Put plainly: Inhibition of human recombinant MAOA by fluorimetric method. As to conditions: human; call rule not given here.

Consider `CO[C@@]12[C@H](COC(N)=O)C3=C(C(=O)C(C)=C(N)C3=O)N1C[C@H]1[C@@H]2N1c1ccc(O)cc1`, for which the Activity entry is “Not Active”. Consider `CC(c1cnc2nc(N)nc(N)c2n1)N(C)c1ccc(C(=O)N[C@@H](CCC(=O)O)C(=O)O)cc1` (some centres undefined) [ADENOPTERIN], for which the Activity result was “Not Active”.

Take `CC(=O)Nc1ccc(/C=N/NC(N)=S)cc1` [AMITHIOZONE]: the Activity result was “Not Active”. In the case of `CCOC(=O)[C@H](Cc1ccc(O)cc1)NC(=O)[C@H](Cc1ccc(N(CCCl)CCCl)cc1)NC(C)=O` [ASDOPHAN], the Activity result is “Not Active”. For `CC(=O)OC1C=CC(=O)OC1C1OC1C` (centres undefined) [ASPERLIN] the value was “Not Active”; for `O=C(O)c1ccc(NC2OC[C@@H](O)[C@H](O)[C@H]2O)cc1` (some centres undefined) [BENAXIBINE], “Not Active”; for `C=CC(=O)NCNC(=O)CCBr` [BROMACRYLIDE], “Not Active”. In the case of `C[C@H]1CC2=CC(=O)CC[C@]2(C)[C@H]2CC[C@@]3(C)[C@@H](CC[C@]3(C)O)[C@H]12` [CALUSTERONE], the Activity result was “Not Active”. For `Cc1nnc(SCC2=C(C(=O)O)N3C(=O)[C@@H](NC(=O)Cn4cnnn4)[C@H]3SC2)s1` [CEFAZOLIN] the value was “Not Active”. Then `C=CC1=C(C(=O)O)N2C(=O)[C@@H](NC(=O)/C(=N\OCC(=O)O)c3csc(N)n3)[C@H]2SC1` [CEFIXIME], with “Not Active”; and `COC1=C(C)C(=O)C2=C(C1=O)[C@@H](CO)N1[C@H]3[C@H]4[C@@H](C[C@H]([C@H]1C#N)N4C)[C@@H]1OCCN1[C@@H]23` [CYANOCYCLINE A], with “Not Active”. Then `C[C@@H]1C[C@@H]([C@H](O)CC2CC(=O)NC(=O)C2)C(=O)[C@@H](C)C1` [CYCLOHEXIMIDE], with “Not Active”; and `COc1cccc2c1C(=O)c1c(O)c3c(c(O)c1C2=O)C[C@@](O)(C(=O)CO)C[C@@H]3O[C@H]1C[C@H](N)[C@H](O)[C@H](C)O1` [DOXORUBICIN], with “Not Active”.

For the molecule `O=NN(CCCl)C(=O)NCCO` [ELMUSTINE], the Activity entry was “Not Active”.

On to `CCc1nc(N)nc(N)c1-c1ccc(Cl)c(Cl)c1` [ETOPRINE], for which the Activity entry is “Not Active”. Consider `CCOC(=O)/C=C1\SC(N2CCCCC2)C(=O)N1C` (centres undefined) [ETOZOLIN], for which the Activity entry is “Not Active”. Then `O=C(NP(=O)(N1CC1)N1CC1)c1ccc(F)cc1` [FLUORBENZOTEF], with “Not Active”. Regarding `Cc1ccc(S(=O)(=O)NC(=O)N[C@H]2[C@H]3CC[C@@](C)([C@H]2O)C3(C)C)cc1` [GLIBORNURIDE], the Activity result is recorded as “Not Active”. For `COc1ccc(Cl)cc1C(=O)NCCc1ccc(S(=O)(=O)NC(=O)NC2CCCCC2)cc1` [GLYBURIDE] the value was “Not Active”; for `NC(=O)NO` [HYDROXYUREA], “Not Active”; for `CNCCc1ccc(OC(=O)C(C)C)c(OC(=O)C(C)C)c1` [IBOPAMINE], “Not Active”.

Take `CC(C)Cc1ccc(C(C)C(=O)O)cc1` (centres undefined) [IBUPROFEN]: the Activity result is listed as “Not Active”. As to `CC(CCc1ccccc1)NCC(O)c1ccc(O)c(C(N)=O)c1` (centres undefined) [LABETALOL], the Activity result is recorded as “Not Active”. Then `OC[C@@H](O)[C@@H](O)[C@H](O)[C@H](O)CO` [MANNITOL], with “Not Active”; and `Cc1cc(Cl)ccc1OCC(=O)O` [METAXON], with “Not Active”. Then `O[C@@H]([C@H](O)[C@H](O)CBr)[C@H](O)CBr` [MITOBRONITOL], with “Not Active”.

Consider `CC(/C=N/NC(=N)N)=N\NC(=N)N` [MITOGUAZONE], for which the Activity result is on record as “Not Active”. Then `COCCOC(=O)C1=C(C)NC(C)=C(C(=O)OC(C)C)C1c1cccc([N+](=O)[O-])c1` (centres undefined) [NIMODIPINE], with “Not Active”.

As for `CCC1(c2ccccc2)C(=O)NC(=O)NC1=O` [PHENOBARBITAL], the Activity entry is “Not Active”.
